For two compounds, IC50 results are on record in article PMC3376217 (2012).

For assay [1], the target named is T1, TOR2 (Saccharomyces cerevisiae, UniProt P32600). Briefly: IP radiometric kinase assay on PHAS-I. The format is biochemical.
Assay [2] deals with T1, TOR2. Kind of assay: IP radiometric kinase assay on PHAS-I. It is filed as biochemical. The source holds these as a separate data set.

Each structure is given as a SMILES string. Where two headings read alike, the source gives them in different places.

In assay [1], `Nc1ccc(-c2ccc3ncc4ccc(=O)n(-c5ccc(F)c(C(F)(F)F)c5)c4c3c2)cn1` [QL-IX-55] had an IC50 of roughly 50 nM. As to `CCC(=O)N1CCN(c2ccc(-n3c(=O)ccc4cnc5ccc(-c6cnc7ccccc7c6)cc5c43)cc2C(F)(F)F)CC1` [Torin1], in assay [2], the IC50 lay in the range of 250 to 500 nM.
